In brackets after ≈: the same amount, converted by molar mass. Counter-ions that a name gives are not always drawn.
How the values were obtained:
[1] = tested on: epidermal carcinoma cells (A431); test: Cell proliferation assay (MTT), A431; format: cell-based; details: Homo sapiens, 72 h, read-out: Growth inhibition, A431
Procedure: (§1) The inhibitory effect on cell proliferation was assessed using MTT assay[53] after 72 h of treatment through dose-response assays performed in the 100 µM to 0.1 µM concentration range. The results were expressed as percentages of growth inhibition.
(§2) Cell viability was determined on HUVEC and A431 cell lines using 3–(4,5-dimethylthiazol-2-yl)-2,5-diphenyltetrazolium bromide (MTT; Sigma-Aldrich) assay[53] after treatment with compounds 2d and 2p. A total of 5 × 10^3 cells/well (A431 cell line) or 10^4 cells/well (HUVEC cell line) were plated in a 96-well plate and treated, in duplicates, with compounds 2d and 2p at five concentrations (0.1 µM, 1 μM, 10 μM, 50 μM, 100 μM) for 72 h. Absorbance was read at 570 nm using Labsystem Multiskan MS microplate reader. The results were expressed as percentages of growth inhibition compared to positive control cell growth (100%).

[2] = tested on: human umbilical vein endothelial cells (HUVEC); test: Cell proliferation assay (MTT), HUVEC; format: cell-based; details: 72 h, read-out: Growth inhibition, HUVEC
Procedure: as §1, §2

[3] = target: T1, E. coli TP (Escherichia coli, UniProt P07650); test: In vitro E. coli thymidine phosphorylase inhibition, spectrophotometric assay at 290 nm; format: biochemical; details: for IC50: 300 µM thymidine, pH 7.4, 25 °C; for inhibition at 50 µM: compound at 50 µM, average of three measurements
T1 construct: purchased Sigma Aldrich T2807-1KU
T1 sequence (P07650 whole entry): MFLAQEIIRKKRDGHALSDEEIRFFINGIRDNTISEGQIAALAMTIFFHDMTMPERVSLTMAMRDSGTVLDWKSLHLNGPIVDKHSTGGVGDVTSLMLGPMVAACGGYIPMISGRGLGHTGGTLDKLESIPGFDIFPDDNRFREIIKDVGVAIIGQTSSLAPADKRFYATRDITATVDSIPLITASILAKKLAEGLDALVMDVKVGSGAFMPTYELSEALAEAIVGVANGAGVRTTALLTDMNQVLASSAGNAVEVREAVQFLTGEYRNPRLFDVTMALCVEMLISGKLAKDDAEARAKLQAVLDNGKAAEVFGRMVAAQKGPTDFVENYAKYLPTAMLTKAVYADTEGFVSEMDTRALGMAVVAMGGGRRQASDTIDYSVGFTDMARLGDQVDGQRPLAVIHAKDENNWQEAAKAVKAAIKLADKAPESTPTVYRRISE
Procedure: The adopted protocol is a modification of the original method developed by Khan[51]. TP activity and inhibition assays were based on the phosphorolysis of thymidine to thymine, this conversion results in a significant spectrophotometric decrease. At 290 nm and pH 7.4, thymidine has a higher extinction coefficient than thymine (Δε = −480 M^−1 cm^−1). The absorbance at 290 nm was measured every 2 min for 30 min in 96-well plates at 25 °C.
Thymidine was dissolved in buffer (3 mM). […] All experiments were conducted in triplicate.
The method reported by Khan et al.[51] has been adapted to a screening in 96-well plates (200 µL well, UV-Star® 96-well microplate, Greiner). Each well contained 160 µL of 50 mM KH2PO4 buffer (pH 7.4), 0.006 U of E. coli TP (T2807-1KU, Sigma Aldrich), and 20 µL of the tested compound solution. […] The decrease in absorbance due to conversion of thymidine to thymine was followed during 30 min (PowerWave HT Microplate Reader, Biotek) at 25 °C, with one measure every 2 min and a 30 s shaking before each measure.

[4] = Solubility in the incubation medium; details: for solubility: aqueous buffer, kinetic from dmso stock; for Solubility (in words): incubation medium
[5] = target: T1, E. coli TP; test: Phosphate competition study; format: biochemical; details: saturating thymidine, phosphate 2–30 mM, compound at its IC50
Procedure: The synthesised compounds have been designed as TP inhibitors interacting with the thymidine fixation site. […] E. coli TP activity was determined in the presence of a saturating concentration of thymidine (equivalent to three times the value of the Michaelis-Menten constant [km][52]) and variable amounts of phosphate (2–30 mM). Tested compounds have been used at a concentration corresponding to the IC50.
For this study, the reaction mixture was composed of 160 µL of 10 mM Tris buffer (pH 7.4), 150 mM NaCl, 2 mM EDTA, 0.006 U of E. coli TP, different concentrations of KH2PO4 (2, 5, 10 and 30 mM). Compounds were tested at a concentration close to their IC50. The reaction was initiated by the addition of 20 µL of thymidine (3 mM and 10 mM solutions).

[6] = target: T1, E. coli TP; test: Enzyme inhibition kinetic study (Lineweaver-Burk); format: biochemical; details: for Km values in the presence of inhibitor / Vmax values in the presence of inhibitor: increasing inhibitor concentration; for Type of TP inhibition: thymidine as substrate, Lineweaver-Burk plots
Procedure: The percentage of TP inhibition was determined for different concentrations of the inhibitors and thymidine.
Figure 7. […] Results are presented as means ± SD; SD denoted by error bars (experiments carried out in triplicate).
The TP inhibiting activity at differents concentrations of compound 2d (0, 15, 20, 30 µM) and 2p (0, 4, 6, 8 µM) was evaluated in the presence of different concentrations of thymidine ([…]) in KH2PO4 buffer (pH 7.4).

[7] = tested on: hTP; set-up: method as in PMID 27783978; details: cited from earlier work
[8] = physchem; details: aqueous buffer, kinetic from dmso stock

| SMILES | IC50 [3] [µM] | inhibition at 50 µM ([3]; 2.5% DMSO) [%] | solubility [4] [µM] | Binding to the phosphate site [5] | also measured |
| --- | --- | --- | --- | --- | --- |
| COc1ccc2c(C)c3c(=O)[nH]c(=O)[nH]c3nc2c1 [Compound 2p] | 26 | 67 | > 50 | did not bind to the phosphate site | inhibition at 100 µM ([1]; A-431, 100 µM): 50%; inhibition at 100 µM [2]: 31%; Km values in the presence of inhibitor [6]: increased; Vmax values in the presence of inhibitor [6]: did not change significantly; Type of TP inhibition [6]: competitive |
| O=C1c2cc3cc4c(cc3nc2C(=O)N1Cc1[nH]c(=O)[nH]c(=O)c1Br)OCO4 [Compound 23b, 2-[(5-Bromo-2,6-dioxo-1,2,3,6-tetrahydropyrimidin-4-yl)methyl]-6,7-methylenedioxy-1H-pyrrolo[3,4-b]quinoline-1,3(2H)-dione] |  | 30 | 50 (≈ 22.3 µg/mL) | did not bind to the phosphate site | Solubility (in words) [4]: less soluble; melting point: 370 to 372 °C (dec.) |
| N=C1CCCN1Cc1[nH]c(=O)[nH]c(=O)c1Cl [TPI, 5-chloro-6-[1-(2-iminopyrrolidinyl)methyl]uracil hydrochloride] |  |  |  |  | IC50 [7]: 0.035 µM |
| COc1ccc2cc3c(=O)[nH]c(=O)[nH]c3nc2c1 [Compound 2d] | 28 | 89 | > 50 |  | inhibition at 50 µM ([1]; A-431, 50 µM): 57%; inhibition at 100 µM [2]: 56%; Km values in the presence of inhibitor [6]: increased; Vmax values in the presence of inhibitor [6]: did not change significantly; Type of TP inhibition [6]: competitive |
| O=C(NCc1cc(=O)[nH]c(=O)[nH]1)c1cc2c(=O)[nH]c(=O)[nH]c2nc1C(=O)NCc1cc(=O)[nH]c(=O)[nH]1 [Compound 30, N^6,N^7-Bis((2,6-dioxo-1,2,3,6-tetrahydropyrimidin-4-yl)methyl)-2,4-dioxo-1,2,3,4-tetrahydropyrido[2,3-d]pyrimidine-6,7-dicarboxamide] | 87 | 31 | > 50 | did not bind to the phosphate site | melting point: 259 to 261 °C (dec.) |
| O=C1c2cc3c(=O)[nH]c(=O)[nH]c3nc2C(=O)N1Cc1ccccc1 [Compound 28a] | 62 | 44 | > 50 | did not bind to the phosphate site |  |
| O=c1[nH]c(=O)c2cc3cc4c(cc3nc2[nH]1)OCO4 [Compound 2g] |  |  |  |  | inhibition at 15 µM ([3]; compound at 15 µM (maximum solubility), 2.5% DMSO): 0%; solubility [8]: 15 µM (≈ 3.86 µg/mL); Solubility (in words) [4]: sparingly soluble |
